Assay results published in US9296745B2, “Diacylglycerol acyltransferase 2 inhibitors” (Pfizer Inc., priority 2012, dated 2016).

Molecular target: Human DGAT2 (hDGAT2) (Homo sapiens (Human), UniProt Q96PD7)
Test: In vitro DGAT2 assay, IC50 determination with hDGAT2 membrane fraction
Format: biochemical
Details: geometric mean; background for complete inhibition of DGAT2 obtained with 50 μM (1R,2R)-2-({3′-Fluoro-4′-[(6-fluoro-1,3-benzothiazol-2-yl)amino]-1,1′-biphenyl-4-yl}carbonyl)cyclopentanecarboxylic acid; read-out: DGAT2 IC50
In short: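 CHAPS-solubilized membrane fraction of FLAG-tagged hDGAT2 from baculovirus-infected SF9 cells (0.01 mg/mL) in 100 mM Hepes-NaOH pH 7.4, 20 mM MgCl2, 200 nM methyl arachidonyl fluorophosphonate; compounds pre-incubated 20 min with 0.04% BSA. Reaction 40 min at room temperature, stopped with H3PO4. [^14C]tridecanoylglycerol in organic phase counted; 11-point geometric mean IC50.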

Chain of Human DGAT2 (hDGAT2) (Q96PD7 whole entry): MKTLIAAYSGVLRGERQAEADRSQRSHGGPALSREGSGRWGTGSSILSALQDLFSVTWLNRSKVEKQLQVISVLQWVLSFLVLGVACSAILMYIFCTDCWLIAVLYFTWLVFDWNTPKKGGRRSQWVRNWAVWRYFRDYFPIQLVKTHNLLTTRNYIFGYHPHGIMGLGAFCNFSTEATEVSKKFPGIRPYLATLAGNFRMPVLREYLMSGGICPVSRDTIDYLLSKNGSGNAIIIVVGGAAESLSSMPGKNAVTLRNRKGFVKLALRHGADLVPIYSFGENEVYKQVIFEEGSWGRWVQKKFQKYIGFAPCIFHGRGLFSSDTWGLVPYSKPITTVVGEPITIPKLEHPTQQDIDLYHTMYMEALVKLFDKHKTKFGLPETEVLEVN

| SMILES | IC50 [nM] |
| --- | --- |
| Cn1nccc1C1(c2nc3ccc(N4CCC[C@@H](C(=O)N5CCCC5)C4)nc3[nH]2)CC1 [Example 104, (R)-(1-(2-(1-(1-Methyl-1H-pyrazol-5-yl)cyclopropyl)-3H-imidazo[4,5-b]pyridin-5-yl)piperidin-3-yl)(pyrrolidin-1-yl)methanone] | 190 |
| CCOC(=O)c1cc(CC)nc(-c2nc3ccc(N4CCC[C@@H](C(=O)N5CCCC5)C4)nc3[nH]2)c1 [Example 105, (R)-Ethyl 2-ethyl-6-(5-(3-(pyrrolidine-1-carbonyl)piperidin-1-yl)-3H-imidazo[4,5-b]pyridin-2-yl)isonicotinate] | 28.9 |
| O=C([C@@H]1CCCN(c2ccc3nc(C4(c5ccc(C(F)(F)F)cc5)CC4)[nH]c3n2)C1)N1CCCC1 [Example 106, (R)-Pyrrolidin-1-yl(1-(2-(1-(4-(trifluoromethyl)phenyl)cyclopropyl)-3H-imidazo[4,5-b]pyridin-5-yl)piperidin-3-yl)methanone] | 5.68 |
| O=C([C@@H]1CCCN(c2ccc3nc(-c4cncc(C5CC5)n4)[nH]c3n2)C1)N1CCOCC1 [Example 107, (R)-(1-(2-(6-Cyclopropylpyrazin-2-yl)-3H-imidazo[4,5-b]pyridin-5-yl)piperidin-3-yl)(morpholino)methanone] | 153 |
| COC(=O)Cc1cccc(-c2nc3ccc(N4CCC[C@@H](C(=O)N5CCCC5)C4)nc3[nH]2)c1 [Example 110, (R)-Methyl 2-(3-(5-(3-(pyrrolidine-1-carbonyl)piperidin-1-yl)-3H-imidazo[4,5-b]pyridin-2-yl)phenyl)acetate] | 41.5 |
| O=C([C@@H]1CCCN(c2ccc3nc(-c4cccc(C5(O)COC5)n4)[nH]c3n2)C1)N1CCCC1 [Example 111, (R)-(1-(2-(6-(3-Hydroxyoxetan-3-yl)pyridin-2-yl)-3H-imidazo[4,5-b]pyridin-5-yl)piperidin-3-yl)(pyrrolidin-1-yl)methanone] | 697 |
| O=C([C@@H]1CCCN(c2ccc3nc(-c4cccc(C(F)(F)F)n4)[nH]c3n2)C1)N1CCCC1 [Example 112, (R)-Pyrrolidin-1-yl(1-(2-(6-(trifluoromethyl)pyridin-2-yl)-3H-imidazo[4,5-b]pyridin-5-yl)piperidin-3-yl)methanone] | 9.23 |
| O=C([C@@H]1CCCN(c2ccc3nc(-c4cncc(F)c4)[nH]c3n2)C1)N1CCCC1 [Example 113, (R)-(1-(2-(5-Fluoropyridin-3-yl)-3H-imidazo[4,5-b]pyridin-5-yl)piperidin-3-yl)(pyrrolidin-1-yl)methanone] | 137 |
| NS(=O)(=O)c1cccc(-c2nc3ccc(N4CCC[C@@H](C(=O)N5CCCC5)C4)nc3[nH]2)c1 [Example 114, (R)-3-(5-(3-(Pyrrolidine-1-carbonyl)piperidin-1-yl)-3H-imidazo[4,5-b]pyridin-2-yl)benzenesulfonamide] | 90.3 |
| CC(C)(O)c1cccc(-c2nc3ccc(N4CCC[C@@H](C(=O)N5CCCC5)C4)nc3[nH]2)n1 [Example 115, (R)-(1-(2-(6-(2-Hydroxypropan-2-yl)pyridin-2-yl)-3H-imidazo[4,5-b]pyridin-5-yl)piperidin-3-yl)(pyrrolidin-1-yl)methanone] | 67.9 |
| O=C([C@@H]1CCCN(c2ccc3nc(-c4ccccc4)[nH]c3n2)C1)N1CCCC1 [Example 116, (R)-(1-(2-Phenyl-3H-imidazo[4,5-b]pyridin-5-yl)piperidin-3-yl)(pyrrolidin-1-yl)methanone] | 66.2 |
| O=C([C@@H]1CCCN(c2ccc3nc(-c4coc(C5CC5)n4)[nH]c3n2)C1)N1CCCC1 [Example 118, (R)-(1-(2-(2-Cyclopropyloxazol-4-yl)-3H-imidazo[4,5-b]pyridin-5-yl)piperidin-3-yl)(pyrrolidin-1-yl)methanone] | 301 |
| CN(C)c1cccc(-c2nc3ccc(N4CCC[C@@H](C(=O)N5CCCC5)C4)nc3[nH]2)n1 [Example 119, (R)-(1-(2-(6-(Dimethylamino)pyridin-2-yl)-3H-imidazo[4,5-b]pyridin-5-yl)piperidin-3-yl)(pyrrolidin-1-yl)methanone] | 22.2 |
| O=C([C@@H]1CCCN(c2ccc3nc(-c4cccc(N5CCC5)n4)[nH]c3n2)C1)N1CCCC1 [Example 120, (R)-(1-(2-(6-(Azetidin-1-yl)pyridin-2-yl)-3H-imidazo[4,5-b]pyridin-5-yl)piperidin-3-yl)(pyrrolidin-1-yl)methanone] | 21.5 |
| O=C([C@@H]1CCCN(c2ccc3nc(-c4cccc(OC(F)F)n4)[nH]c3n2)C1)N1CCCC1 [Example 121, (R)-(1-(2-(6-(Difluoromethoxy)pyridin-2-yl)-3H-imidazo[4,5-b]pyridin-5-yl)piperidin-3-yl)(pyrrolidin-1-yl)methanone] | 14.3 |
| O=C([C@@H]1CCCN(c2ccc3nc(-c4cccc(C(F)F)n4)[nH]c3n2)C1)N1CCCC1 [Example 122, (R)-(1-(2-(6-(Difluoromethyl)pyridin-2-yl)-3H-imidazo[4,5-b]pyridin-5-yl)piperidin-3-yl)(pyrrolidin-1-yl)methanone] | 10.9 |

| SMILES | IC50 [nM] |
| --- | --- |
| COC(=O)c1cccc(-c2nc3ccc(N4CCC[C@@H](C(=O)N5CCCC5)C4)nc3[nH]2)n1 [Example 123, (R)-Methyl 6-(5-(3-(pyrrolidine-1-carbonyl)piperidin-1-yl)-1H-imidazo[4,5-b]pyridin-2-yl)picolinate] | 276 |
| CCOC(=O)C1(c2cccc(-c3nc4ccc(N5CCC[C@@H](C(=O)N6CCCC6)C5)nc4[nH]3)c2)CC1 [Example 124, (R)-Ethyl 1-(3-(5-(3-(pyrrolidine-1-carbonyl)piperidin-1-yl)-3H-imidazo[4,5-b]pyridin-2-yl)phenyl)cyclopropanecarboxylate] | 5.27 |
| COC(=O)c1cccc(-c2nc3ccc(N4CCC[C@@H](C(=O)N5CCCC5)C4)nc3[nH]2)c1 [Example 125, (R)-Methyl 3-(5-(3-(pyrrolidine-1-carbonyl)piperidin-1-yl)-3H-imidazo[4,5-b]pyridin-2-yl)benzoate] | 54 |
| COc1cc(C(=O)O)cc(-c2nc3ccc(N4CCC[C@@H](C(=O)N5CCCC5)C4)nc3[nH]2)n1 [Example 126, (R)-2-Methoxy-6-(5-(3-(pyrrolidine-1-carbonyl)piperidin-1-yl)-3H-imidazo[4,5-b]pyridin-2-yl)isonicotinic acid] | 3470 |
| CS(=O)(=O)c1cccc(-c2nc3ccc(N4CCC[C@@H](C(=O)N5CCCC5)C4)nc3[nH]2)c1 [Example 127, (R)-(1-(2-(3-(Methylsulfonyl)phenyl)-3H-imidazo[4,5-b]pyridin-5-yl)piperidin-3-yl)(pyrrolidin-1-yl)methanone] | 235 |
| CCOC(=O)CCc1cccc(-c2nc3ccc(N4CCC[C@@H](C(=O)N5CCCC5)C4)nc3[nH]2)c1 [Example 128, (R)-Ethyl 3-(3-(5-(3-(pyrrolidine-1-carbonyl)piperidin-1-yl)-3H-imidazo[4,5-b]pyridin-2-yl)phenyl)propanoate] | 7.16 |
| CCN(CC)C(=O)c1nc2ccc(N3CCC[C@@H](C(=O)N4CCCC4)C3)nc2[nH]1 [Example 129, (R)—N,N-Diethyl-5-(3-(pyrrolidine-1-carbonyl)piperidin-1-yl)-3H-imidazo[4,5-b]pyridine-2-carboxamide] | 4540 |
| O=C(Nc1ccccn1)c1nc2ccc(N3CCC[C@@H](C(=O)N4CCCC4)C3)nc2[nH]1 [Example 130, (R)—N-(Pyridin-2-yl)-5-(3-(pyrrolidine-1-carbonyl)piperidin-1-yl)-3H-imidazo[4,5-b]pyridine-2-carboxamide] | 1900 |
| O=C([C@@H]1CCCN(c2ccc3nc(-c4ccnc(C5CC5)n4)[nH]c3n2)C1)N1CCC(F)(F)C1 [Example 131, (R)-(1-(2-(2-Cyclopropylpyrimidin-4-yl)-3H-imidazo[4,5-b]pyridin-5-yl)piperidin-3-yl)(3,3-difluoropyrrolidin-1-yl)methanone] | 34.4 |
| O=C([C@@H]1CCCN(c2ccc3nc(-c4ccnc(C5CC5)n4)[nH]c3n2)C1)N1CC[C@H](O)C1 [Example 132, ((R)-1-(2-(2-Cyclopropylpyrimidin-4-yl)-3H-imidazo[4,5-b]pyridin-5-yl)piperidin-3-yl)((S)-3-hydroxypyrrolidin-1-yl)methanone] | 695 |
| c1cc(-c2nc3ccc(N4CCCC(c5ncc6n5CCC6)C4)nc3[nH]2)nc(C2CC2)n1 (stereo not shown) [Example 133, 2-(2-Cyclopropylpyrimidin-4-yl)-5-(3-(6,7-dihydro-5H-pyrrolo[1,2-c]imidazol-3-yl)piperidin-1-yl)-3H-imidazo[4,5-b]pyridine] | 252 |
| c1cc(-c2nc3ccc(N4CCC[C@@H](c5ncc6n5CCC6)C4)nc3[nH]2)nc(C2CC2)n1 [Example 134, (R)-2-(2-Cyclopropylpyrimidin-4-yl)-5-(3-(6,7-dihydro-5H-pyrrolo[1,2-c]imidazol-3-yl)piperidin-1-yl)-3H-imidazo[4,5-b]pyridine] | 210 |
| c1cc(-c2nc3ccc(N4CCC[C@H](c5ncc6n5CCC6)C4)nc3[nH]2)nc(C2CC2)n1 [Example 135, (S)-2-(2-cyclopropylpyrimidin-4-yl)-5-(3-(6,7-dihydro-5H-pyrrolo[1,2-c]imidazol-3-yl)piperidin-1-yl)-3H-imidazo[4,5-b]pyridine] | 4240 |
| O=C([C@@H]1CCCN(c2nc3[nH]c(-c4ccnc(C5CC5)n4)nc3cc2F)C1)N1CCCC1 [Example 136, (R)-(1-(2-(2-Cyclopropylpyrimidin-4-yl)-6-fluoro-3H-imidazo[4,5-b]pyridin-5-yl)piperidin-3-yl)(pyrrolidin-1-yl)methanone] | 6.32 |
| O=C([C@@H]1CCCN(c2ccc3nc(C4(N5CCOCC5=O)CC4)[nH]c3n2)C1)N1CCCC1 [Example 137, (R)-4-(1-(5-(3-(Pyrrolidine-1-carbonyl)piperidin-1-yl)-3H-imidazo[4,5-b]pyridin-2-yl)cyclopropyl)morpholin-3-one] | 1280 |
